According to US10251892B2, “Bicyclic heterocycles as FGFR4 inhibitors” (Incyte Corporation, priority 2015, dated 2019):

How the values were obtained:
FGFR3 enzyme = FGFR3 enzyme (Homo sapiens (Human), UniProt P22607); experiment: FGFR Enzymatic Assay (peptide phosphorylation, FRET), FGFR3; type: biochemical; conditions: IC50 ratio showing FGFR3 selectivity; pre-incubated for 4 hours
Protocol: (§1) The inhibitor potency of the exemplified compounds was measured in an enzyme assay that measures peptide phosphorylation using FRET measurements to detect product formation. Inhibitors were serially diluted in DMSO and a volume of 0.5 μL was transferred to the wells of a 384-well plate.
(§2) GraphPad prism3 was used to analyze the data.

FGFR4 = FGFR4 (Homo sapiens (Human), UniProt P22455); experiment: FGFR Enzymatic Assay (peptide phosphorylation, FRET), FGFR4; type: biochemical
Protocol: as §1
The enzymes were purchased from Millipore or Invitrogen.
as §2

[1] = IC50 ratio showing FGFR4 selectivity, pre-incubated for 4 hours
[2] = ratio of IC50 data showing FGFR4 selectivity, pre-incubated for 5 to 10 minutes

Sequence of FGFR4 (P22455 22-802): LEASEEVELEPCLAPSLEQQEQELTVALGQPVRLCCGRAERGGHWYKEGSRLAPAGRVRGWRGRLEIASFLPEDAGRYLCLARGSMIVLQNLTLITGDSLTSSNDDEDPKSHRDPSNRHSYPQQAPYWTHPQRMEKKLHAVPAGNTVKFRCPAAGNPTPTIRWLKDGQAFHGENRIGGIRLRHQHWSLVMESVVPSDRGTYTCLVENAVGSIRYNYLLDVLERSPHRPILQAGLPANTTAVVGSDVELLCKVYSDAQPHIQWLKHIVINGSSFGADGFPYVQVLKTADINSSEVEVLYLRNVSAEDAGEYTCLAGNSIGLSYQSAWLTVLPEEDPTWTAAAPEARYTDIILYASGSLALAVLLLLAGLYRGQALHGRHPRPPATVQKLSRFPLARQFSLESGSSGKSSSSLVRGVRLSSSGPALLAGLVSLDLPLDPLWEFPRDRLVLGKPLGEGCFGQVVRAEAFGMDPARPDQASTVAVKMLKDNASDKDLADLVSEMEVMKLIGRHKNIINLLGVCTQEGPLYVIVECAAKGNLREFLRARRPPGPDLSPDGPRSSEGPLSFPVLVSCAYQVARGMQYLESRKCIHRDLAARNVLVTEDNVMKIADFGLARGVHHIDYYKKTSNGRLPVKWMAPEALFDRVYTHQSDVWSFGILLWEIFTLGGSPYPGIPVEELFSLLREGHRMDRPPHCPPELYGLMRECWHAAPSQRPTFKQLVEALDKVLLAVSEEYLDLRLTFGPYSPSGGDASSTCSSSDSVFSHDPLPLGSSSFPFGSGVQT
Sequence of FGFR3 enzyme (P22607 23-806): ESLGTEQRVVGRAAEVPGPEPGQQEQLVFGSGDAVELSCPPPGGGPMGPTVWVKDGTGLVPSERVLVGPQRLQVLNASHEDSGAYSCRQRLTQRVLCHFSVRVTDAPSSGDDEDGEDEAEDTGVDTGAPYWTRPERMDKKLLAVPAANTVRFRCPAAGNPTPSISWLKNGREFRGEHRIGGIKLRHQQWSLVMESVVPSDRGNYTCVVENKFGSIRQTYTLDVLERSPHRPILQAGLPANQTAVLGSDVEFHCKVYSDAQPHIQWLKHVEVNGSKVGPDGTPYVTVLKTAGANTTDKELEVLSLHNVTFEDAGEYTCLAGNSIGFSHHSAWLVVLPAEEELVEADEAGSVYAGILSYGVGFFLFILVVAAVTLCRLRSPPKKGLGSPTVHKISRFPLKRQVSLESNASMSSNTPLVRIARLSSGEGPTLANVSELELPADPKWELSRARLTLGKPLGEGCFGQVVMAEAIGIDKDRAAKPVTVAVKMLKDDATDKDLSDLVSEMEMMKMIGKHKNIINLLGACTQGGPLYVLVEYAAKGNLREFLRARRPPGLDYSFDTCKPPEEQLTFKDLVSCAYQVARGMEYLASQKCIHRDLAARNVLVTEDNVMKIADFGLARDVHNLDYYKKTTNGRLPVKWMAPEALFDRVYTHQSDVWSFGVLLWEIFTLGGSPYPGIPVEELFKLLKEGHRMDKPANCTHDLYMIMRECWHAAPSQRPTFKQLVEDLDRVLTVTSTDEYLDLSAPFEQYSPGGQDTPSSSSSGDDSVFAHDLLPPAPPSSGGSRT

Structure (SMILES) | FGFR1/FGFR3 (FGFR3 enzyme) | FGFR1/FGFR4 (FGFR4; [1]) | FGFR2/FGFR4 (FGFR4; [1]) | FGFR3/FGFR4 (FGFR4; [1]) | FGFR1/FGFR4 (FGFR4; [2]) | FGFR2/FGFR4 (FGFR4; [2]) | FGFR3/FGFR4 (FGFR4; [2])
COc1cc(OC)c(F)c(N2Cc3cnc(-c4cncc(N5CCOCC5)c4)cc3C3(CC3)C2=O)c1F [Example 6, 2′-(2,6-difluoro-3,5-dimethoxyphenyl)-6′-(5-morpholinopyridin-3-yl)-1′H-spiro[cyclopropane-1,4′-[2,7]naphthyridin]-3′(2′H)-one] | >3 | >100 | >100 | >25 | >100 | >100 | >50
COc1cc(OC)c(F)c(N2Cc3cnc(-c4cncc(CN5CCOCC5)c4)cc3C3(CC3)C2=O)c1F [Example 16, 2′-(2,6-difluoro-3,5-dimethoxyphenyl)-6′-(5-(morpholinomethyl)pyridin-3-yl)-1′H-spiro[cyclopropane-1,4′-[2,7]naphthyridin]-3′(2′H)-one] | >1 | >50 | >25 | >10 | >25 | >10 | >10
